Experiments:
Adenosine transporter 1 = target: T1, Adenosine transporter 1 (Trypanosoma brucei, UniProt Q9Y0I0); experiment: (§1) Compound was tested for inhibition of Adenosine transporter P2 type by using [2-3H]adenosine as radioligand in Trypanosoma equiperdum
T1 sequence (Q9Y0I0 whole entry): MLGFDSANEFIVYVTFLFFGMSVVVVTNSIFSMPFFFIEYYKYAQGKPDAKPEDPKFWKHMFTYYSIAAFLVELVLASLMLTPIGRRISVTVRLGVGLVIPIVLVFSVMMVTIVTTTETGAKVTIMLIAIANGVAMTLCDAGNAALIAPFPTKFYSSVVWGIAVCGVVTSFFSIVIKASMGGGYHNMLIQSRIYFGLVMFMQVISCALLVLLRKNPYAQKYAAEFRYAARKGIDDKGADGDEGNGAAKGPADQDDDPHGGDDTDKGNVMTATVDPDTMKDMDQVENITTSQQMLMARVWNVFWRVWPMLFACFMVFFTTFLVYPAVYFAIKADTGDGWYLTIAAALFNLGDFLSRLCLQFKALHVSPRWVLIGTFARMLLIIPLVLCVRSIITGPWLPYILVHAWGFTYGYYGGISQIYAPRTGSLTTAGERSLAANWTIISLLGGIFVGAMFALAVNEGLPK

[1] = compound: Nc1ncnc2c1ncn2[C@@H]1O[C@H](CO)[C@@H](O)[C@H]1O; experiment: as §1

Molecule: Nc1ncnc2c1ncn2[C@@H]1O[C@H](CO[N+](=O)[O-])[C@@H](O)[C@H]1O
- Ki (Adenosine transporter 1): 12.3 µM

Molecule: CC(=O)NC(C(=O)NCCn1cnc2c(N)ncnc21)C(C)(C)SN=O (configuration not stated)
- Ki (Adenosine transporter 1): 0.62 µM

Molecule: CC(=O)NC(C(=O)Nc1ccc(N)nc1)C(C)(C)SN=O (configuration not stated)
- Ki (Adenosine transporter 1): 404 µM

Molecule: Nc1nc(N)nc(Nc2ccc(CCO[N+](=O)[O-])cc2)n1
- Ki (Adenosine transporter 1): 0.2 µM

Molecule: Nc1nc(N)c2c(no[n+]2[O-])n1
- Ki (Adenosine transporter 1): 117 µM

Molecule: CC(=O)NC(C(=O)NC[C@H]1OC(n2cnc3c(N)ncnc32)[C@H](O)[C@@H]1O)C(C)(C)SN=O (some centres not stated)
- Ki (Adenosine transporter 1): 3.47 µM

Molecule: NCCS[As](SCCN)c1ccc(Nc2nc(N)nc(N)n2)cc1 [CYMELARSEN]
- Ki (Adenosine transporter 1): 22.9 µM

Molecule: CC(=O)NC(C(=O)Nc1ccc(Nc2nc(N)nc(N)n2)cc1)C(C)(C)SN=O (configuration not stated)
- Ki (Adenosine transporter 1): 0.58 µM

Molecule: O=[N+]([O-])OCc1ccccc1
- Ki (Adenosine transporter 1): > 1000 µM

Molecule: Nc1ncnc2c1ncn2CCO[N+](=O)[O-]
- Ki (Adenosine transporter 1): 1.9 µM

Molecule: CC(=O)N[C@@H](C(=O)O)C(C)(C)SN=O
- Ki (Adenosine transporter 1): > 1000 µM

B1: Adenosine transporter 1 (Trypanosoma brucei), Q9Y0I0 (protein)
chain: MLGFDSANEFIVYVTFLFFGMSVVVVTNSIFSMPFFFIEYYKYAQGKPDAKPEDPKFWKHMFTYYSIAAFLVELVLASLMLTPIGRRISVTVRLGVGLVIPIVLVFSVMMVTIVTTTETGAKVTIMLIAIANGVAMTLCDAGNAALIAPFPTKFYSSVVWGIAVCGVVTSFFSIVIKASMGGGYHNMLIQSRIYFGLVMFMQVISCALLVLLRKNPYAQKYAAEFRYAARKGIDDKGADGDEGNGAAKGPADQDDDPHGGDDTDKGNVMTATVDPDTMKDMDQVENITTSQQMLMARVWNVFWRVWPMLFACFMVFFTTFLVYPAVYFAIKADTGDGWYLTIAAALFNLGDFLSRLCLQFKALHVSPRWVLIGTFARMLLIIPLVLCVRSIITGPWLPYILVHAWGFTYGYYGGISQIYAPRTGSLTTAGERSLAANWTIISLLGGIFVGAMFALAVNEGLPK
- Km [1]: 0.7 µM

Source: ChEMBL document CHEMBL1133199, “Synthesis and uptake of nitric oxide-releasing drugs by the P2 nucleoside transporter in Trypanosoma equiperdum” (Bioorg Med Chem Lett, 2000)
